Measurements from patent publication US20210253642A1, “CALPAIN MODULATORS AND THERAPEUTIC USES THEREOF BACKGROUND” (Blade Therapeutics, Inc., priority 2018, published 2021).

What was measured:
Format in all cases: biochemical
Human Calpain 2/NS1 = biological target: T1, Human Calpain 2/NS1 (Homo sapiens, UniProt P17655); test: Calpain continuous fluorescence (FRET) inhibition assay; settings: Column B; SensoLyte 520 FRET substrate, pH 7.5, 25C
T1 sequence (P17655 1-700): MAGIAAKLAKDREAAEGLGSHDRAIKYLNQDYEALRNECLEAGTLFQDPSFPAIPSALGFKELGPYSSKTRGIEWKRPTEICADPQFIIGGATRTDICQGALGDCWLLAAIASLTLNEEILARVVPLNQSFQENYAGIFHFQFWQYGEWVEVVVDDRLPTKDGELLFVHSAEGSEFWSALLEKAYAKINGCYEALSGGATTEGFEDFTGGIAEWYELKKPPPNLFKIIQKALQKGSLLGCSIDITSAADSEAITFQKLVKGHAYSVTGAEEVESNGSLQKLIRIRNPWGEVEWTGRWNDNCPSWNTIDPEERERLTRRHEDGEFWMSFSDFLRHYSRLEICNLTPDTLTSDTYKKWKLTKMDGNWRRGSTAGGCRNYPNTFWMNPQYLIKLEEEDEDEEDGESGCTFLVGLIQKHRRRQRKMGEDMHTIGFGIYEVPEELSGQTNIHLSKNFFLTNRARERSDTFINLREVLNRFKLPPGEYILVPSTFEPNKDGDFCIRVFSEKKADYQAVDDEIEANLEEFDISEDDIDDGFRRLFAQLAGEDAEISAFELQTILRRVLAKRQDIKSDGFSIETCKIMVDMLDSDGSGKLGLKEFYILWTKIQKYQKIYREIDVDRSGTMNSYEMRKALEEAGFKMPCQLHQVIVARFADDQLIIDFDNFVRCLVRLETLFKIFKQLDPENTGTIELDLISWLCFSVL
T1 sequence (P04632 1-268 partner): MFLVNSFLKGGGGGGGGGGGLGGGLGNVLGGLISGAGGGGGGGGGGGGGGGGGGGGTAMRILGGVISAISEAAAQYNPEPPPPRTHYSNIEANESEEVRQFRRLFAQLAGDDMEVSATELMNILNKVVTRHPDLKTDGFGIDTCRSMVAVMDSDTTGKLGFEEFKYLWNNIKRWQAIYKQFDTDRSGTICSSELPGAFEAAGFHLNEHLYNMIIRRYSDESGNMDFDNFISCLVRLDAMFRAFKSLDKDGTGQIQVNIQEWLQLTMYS
Description: (§1) Calpain 1, 2, and 9 activity and inhibition thereof was assessed by means of a continuous fluorescence assay. The SensoLyte 520 Calpain substrate (Anaspec Inc.) was optimized for detecting calpain activity. This substrate contains an internally quenched 5-FAM/QXLTM 520 FRET pair. Calpains 1, 2, and 9 cleave the FRET substrate into two separate fragments resulting in an increase of 5-FAM fluorescence that is proportional to calpain activity
(§2) Assays were typically setup in black 384-well plates using automated liquid handling as follows. Calpain assay base buffer typically contains 50 mM Tris, pH 7.5, 100 mM NaCl and 1 mM DTT. Inhibitors were serially diluted in DMSO and used to setup 2× mixtures with calpains in the aforementioned buffer. After incubation at ambient temperature (25C), the reaction was initiated by adding a 2× mix of the fluorescent peptide substrate and CaCl2) (required for in-situ calpain activation) in the same buffer. Reaction progress curve data were typically collected for 10 min using excitation/emission wavelengths of 490 nm/520 nm on SpectraMax i3x or the FLIPR-Tetra plate readers (Molecular Devices Inc.). Reaction rates were calculated from progress curve slopes typically over 1-5 min. Dose response curves (rate vs. log inhibitor concentration) were typically fit to a 4-parameter logistic function to extract IC50 values.

Human Calpain 1/NS1 = biological target: T2, Human Calpain 1/NS1 (Homo sapiens, UniProt P07384); test: as above; settings: Column A; SensoLyte 520 FRET substrate, pH 7.5, 25C
T2 sequence (P07384 1-714): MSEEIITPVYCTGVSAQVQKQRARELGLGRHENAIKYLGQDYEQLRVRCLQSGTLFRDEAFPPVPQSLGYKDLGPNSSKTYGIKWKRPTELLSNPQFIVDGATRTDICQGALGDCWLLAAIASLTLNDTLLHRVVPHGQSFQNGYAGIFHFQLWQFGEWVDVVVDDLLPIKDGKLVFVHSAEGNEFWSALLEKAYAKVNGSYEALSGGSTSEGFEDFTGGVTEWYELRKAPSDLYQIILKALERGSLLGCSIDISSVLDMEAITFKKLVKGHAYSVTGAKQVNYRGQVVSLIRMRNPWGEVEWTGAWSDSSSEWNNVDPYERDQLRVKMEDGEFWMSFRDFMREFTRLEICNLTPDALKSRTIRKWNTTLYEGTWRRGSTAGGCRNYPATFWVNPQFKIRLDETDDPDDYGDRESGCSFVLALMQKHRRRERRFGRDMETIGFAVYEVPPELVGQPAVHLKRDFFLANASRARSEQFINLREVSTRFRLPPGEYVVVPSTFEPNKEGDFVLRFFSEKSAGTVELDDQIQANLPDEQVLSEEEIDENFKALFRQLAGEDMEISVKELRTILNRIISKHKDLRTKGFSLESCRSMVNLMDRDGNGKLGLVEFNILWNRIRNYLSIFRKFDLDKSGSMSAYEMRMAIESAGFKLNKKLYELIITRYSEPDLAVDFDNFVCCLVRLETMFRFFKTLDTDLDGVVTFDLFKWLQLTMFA
T2 sequence (P04632 1-268 partner): T1 sequence (P04632 1-268 partner)
Description: as §1, §2

Human Calpain 9/NS1 = biological target: T3, Human Calpain 9/NS1 (Homo sapiens, UniProt O14815); test: as above; settings: Column C; SensoLyte 520 FRET substrate, pH 7.5, 25C
T3 sequence (O14815 1-690): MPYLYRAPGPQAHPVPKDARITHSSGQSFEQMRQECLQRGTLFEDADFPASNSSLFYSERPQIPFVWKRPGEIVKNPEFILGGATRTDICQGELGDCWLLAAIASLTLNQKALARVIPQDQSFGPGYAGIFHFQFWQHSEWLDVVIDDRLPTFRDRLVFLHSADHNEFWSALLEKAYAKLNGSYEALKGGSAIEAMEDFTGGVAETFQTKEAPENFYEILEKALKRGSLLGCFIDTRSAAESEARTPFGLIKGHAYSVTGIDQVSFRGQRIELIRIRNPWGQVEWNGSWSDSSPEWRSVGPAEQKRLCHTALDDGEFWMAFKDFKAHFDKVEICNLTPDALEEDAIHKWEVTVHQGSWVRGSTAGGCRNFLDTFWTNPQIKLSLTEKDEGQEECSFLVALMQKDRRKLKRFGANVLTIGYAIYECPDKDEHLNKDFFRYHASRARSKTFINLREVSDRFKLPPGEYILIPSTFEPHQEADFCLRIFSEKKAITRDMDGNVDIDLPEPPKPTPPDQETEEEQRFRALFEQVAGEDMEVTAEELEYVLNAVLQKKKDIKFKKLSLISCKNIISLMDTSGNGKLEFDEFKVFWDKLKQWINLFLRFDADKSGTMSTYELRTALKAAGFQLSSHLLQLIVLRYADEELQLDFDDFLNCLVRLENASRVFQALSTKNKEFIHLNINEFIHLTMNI
T3 sequence (P04632 1-268 partner): T1 sequence (P04632 1-268 partner)
Description: as §1, §2

Human Cathepsin S = biological target: T4, Human Cathepsin S (Homo sapiens, UniProt P25774); test: Cathepsin continuous fluorescence inhibition assay; settings: Column F; enzyme 6 nM, substrate 1 uM, pH 4.5, 30 minutes pre-incubation with inhibitor
T4 construct: purchased
T4 sequence (P25774 115-331): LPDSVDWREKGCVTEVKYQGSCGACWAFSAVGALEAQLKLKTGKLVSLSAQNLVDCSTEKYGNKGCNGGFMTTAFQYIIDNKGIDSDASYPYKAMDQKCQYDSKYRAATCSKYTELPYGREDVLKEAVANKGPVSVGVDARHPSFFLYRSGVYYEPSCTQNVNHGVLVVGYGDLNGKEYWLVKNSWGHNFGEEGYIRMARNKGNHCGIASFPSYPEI
Description: (§3) Cathepsin activity and inhibition thereof was assessed by means of a continuous fluorescence assay. All assays were run in 384 well format and utilized peptide substrates that liberate fluorescence upon protease catalyzed cleavage. FLIPR plate readers (Molecular Devices Inc.) were used to monitor reactions and extract initial rates which were then fit (four parameter logistic function) to obtain IC50 values. All enzymes are human. All enzymes and reagents were obtained commercially and are summarized in Tables 1 and 2 below along with assay conditions.

Human Cathepsin K = biological target: T5, Human Cathepsin K (Homo sapiens, UniProt P43235); test: Cathepsin continuous fluorescence inhibition assay; settings: Column E; enzyme 10 nM, substrate 1 uM, pH 5.5, 30 minutes pre-incubation with inhibitor
T5 construct: purchased
T5 sequence (P43235 115-329): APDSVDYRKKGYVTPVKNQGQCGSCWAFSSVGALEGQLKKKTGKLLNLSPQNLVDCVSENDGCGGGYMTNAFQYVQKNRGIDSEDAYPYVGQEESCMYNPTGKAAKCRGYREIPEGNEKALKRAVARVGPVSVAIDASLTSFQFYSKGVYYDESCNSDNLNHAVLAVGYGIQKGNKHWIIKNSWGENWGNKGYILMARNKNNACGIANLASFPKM
Description: as §3

Human Cathepsin L = biological target: T6, Human Cathepsin L (Homo sapiens, UniProt P07711); test: Cathepsin continuous fluorescence inhibition assay; settings: Column G; enzyme 0.025 nM, substrate 1 uM, pH 6.0, 30 minutes pre-incubation with inhibitor
T6 construct: purchased
T6 sequence (P07711 114-333): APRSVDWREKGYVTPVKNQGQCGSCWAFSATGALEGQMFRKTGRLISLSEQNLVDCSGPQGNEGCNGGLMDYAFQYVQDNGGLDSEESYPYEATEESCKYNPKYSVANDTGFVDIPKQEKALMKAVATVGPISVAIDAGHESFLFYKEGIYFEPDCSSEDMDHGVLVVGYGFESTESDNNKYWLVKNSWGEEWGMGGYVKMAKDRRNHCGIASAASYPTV
Description: as §3

Human Cathepsin B = biological target: T7, Human Cathepsin B (Homo sapiens, UniProt P07858); test: Cathepsin continuous fluorescence inhibition assay; settings: Column D; enzyme 25 nM, substrate 1 uM, pH 5.0, 30 minutes pre-incubation with inhibitor
T7 construct: purchased
Description: as §3

| SMILES | IC50 (Human Calpain 2/NS1) | IC50 (Human Calpain 1/NS1) | IC50 (Human Calpain 9/NS1) | IC50 (Human Cathepsin S) | IC50 (Human Cathepsin K) | IC50 (Human Cathepsin L) | IC50 (Human Cathepsin B) |
| --- | --- | --- | --- | --- | --- | --- | --- |
| CC(C)[C@@H]1NC(=O)/C=C/[C@@H](NC(=O)CNC(=O)[C@H](Cc2ccc(O)cc2)NC(=O)OC(C)(C)C)COC(=O)[C@H](Cc2ccc(O)cc2)NC1=O [Compound 8, tert-butyl ((s)-1-((2-(((3S,6S,11R,E)-3-(4-hydroxybenzyl)-6-isopropyl-2,5,8-trioxo-1-oxa-4,7-diazacyclododec-9-en-11-yl)amino)-2-oxoethyl)amino)-3-(4-hydroxyphenyl)-1-oxopropan-2-yl)carbamate] | > 10 µM | > 10 µM | > 10 µM | < 3 µM | < 3 µM | < 3 µM | < 3 µM |
| CC(C)[C@@H]1NC(=O)/C=C/[C@@H](NC(=O)[C@@H](NC(=O)OCc2ccccc2)C(C)C)COC(=O)[C@H](Cc2ccc(O)cc2)NC1=O [Compound 9, Benzyl ((s)-1-(((3S,6S,11R,E)-3-(4-hydroxybenzyl)-6-isopropyl-2,5,8-trioxo-1-oxa-4,7-diazacyclododec-9-en-11-yl)amino)-3-methyl-1-oxobutan-2-yl)carbamate] | < 3 µM | 3 to 10 µM | > 10 µM | < 3 µM | < 3 µM | < 3 µM | < 3 µM |
| CCCCCC/C=C\CC(=O)NCC(=O)N[C@H](C(=O)N[C@@H]1/C=C/C(=O)N[C@@H](C(C)C)C(=O)N[C@@H](Cc2ccc(O)cc2)C(=O)OC1)C(C)C [Compound 10, (Z)—N-(2-(((S)-1-(((3S,6S,11R,E)-3-(4-hydroxybenzyl)-6-isopropyl-2,5,8-trioxo-1-oxa-4,7-diazacyclododec-9-en-11-yl)amino)-3-methyl-1-oxobutan-2-yl)amino)-2-oxoethyl)dec-3-enamide] | < 3 µM | < 3 µM | > 10 µM | < 3 µM | < 3 µM | < 3 µM | < 3 µM |
| CCCCCC/C=C\CC(=O)N[C@@H](Cc1ccc(O)cc1)C(=O)N[C@H](C(=O)N[C@@H]1/C=C/C(=O)N[C@@H](C(C)C)C(=O)N[C@@H](Cc2ccc(OC)cc2)C(=O)OC1)C(C)C [Compound 11, (Z)—N—((S)-3-(4-hydroxyphenyl)-1-(((S)-1-(((3S,6S,11R,E)-6-isopropyl-3-(4-methoxybenzyl)-2,5,8-trioxo-1-oxa-4,7-diazacyclododec-9-en-11-yl)amino)-3-methyl-1-oxobutan-2-yl)amino)-1-oxopropan-2-yl)dec-3-enamide] | < 3 µM | < 3 µM | > 10 µM | < 3 µM | < 3 µM | < 3 µM | < 3 µM |
| CC(C)C[C@H](NC(=O)OC(C)(C)C)C(=O)N[C@@H]1/C=C/C(=O)N[C@@H](C(C)C)C(=O)N[C@@H](Cc2ccc(O)cc2)C(=O)OC1 [Compound 12, tert-butyl ((S)-1-(((3S,6S,11R,E)-3-(4-hydroxybenzyl)-6-isopropyl-2,5,8-trioxo-1-oxa-4,7-diazacyclododec-9-en-11-yl)amino)-4-methyl-1-oxopentan-2-yl)carbamate] | < 3 µM | < 3 µM | > 10 µM | < 3 µM | < 3 µM | < 3 µM | < 3 µM |
| CC(C)[C@@H]1NC(=O)/C=C/[C@@H](NC(=O)[C@H](C)NC(=O)OC(C)(C)C)COC(=O)[C@H](Cc2ccc(O)cc2)NC1=O [Compound 13, tert-butyl ((s)-1-(((3S,6S,11R,E)-3-(4-hydroxybenzyl)-6-isopropyl-2,5,8-trioxo-1-oxa-4,7-diazacyclododec-9-en-11-yl)amino)-1-oxopropan-2-yl)carbamate] | > 10 µM | > 10 µM | > 10 µM | < 3 µM | < 3 µM | < 3 µM | < 3 µM |
| CC(C)[C@@H]1NC(=O)/C=C/[C@@H](NC(=O)[C@H](Cc2ccccc2)NC(=O)OC(C)(C)C)COC(=O)[C@H](Cc2ccc(O)cc2)NC1=O [Compound 14, tert-butyl ((s)-1-(((3S,6S,11R,E)-3-(4-hydroxybenzyl)-6-isopropyl-2,5,8-trioxo-1-oxa-4,7-diazacyclododec-9-en-11-yl)amino)-1-oxo-3-phenylpropan-2-yl)carbamate] | > 10 µM | > 10 µM | > 10 µM | < 3 µM | < 3 µM | < 3 µM | 3 to 10 µM |
